One series relates to Bacillus subtilis DSM10. In words: Antimicrobial activity, broth microdilution MIC. Format: cell-based. Particulars: for MIC: read-out: Antimicrobial activity (MIC) BS. Here is the method: (§1) To evaluate the biological effects of compounds 1–6, various assays were carried out. The antimicrobial activity of the isolated compounds against Bacillus subtilis DSM10, Escherichia coli DSM498, Candida tenuis MUCL29892, and Mucor plumbeus MUCL49355 was determined as described by Kuephadungphan and co-workers. The nematicidal activity against Caenorhabditis elegans was investigated using a microtiter plate assay according to Helaly and co-workers, while the cytotoxicity was tested against murine fibroblast (L929) and human HeLa (KB3.1) cell lines according to Chepkirui and co-workers.
Biological activity screening of compounds 1–6
Antimicrobial activity assay
The minimum inhibitory concentration (MIC) of compounds 1–6 was determined using the broth microdilution method according to Kuephadungphan et al.4 against B. subtilis DSM10, E. coli DSM498, C. tenuis MUCL29892 and M. plumbeus MUCL49355. Stock suspension of each bacterium and yeast (100 μL) was transferred to 100 mL of EBS medium and YM medium, respectively.
Suspensions of B. subtilis and C. tenuis were incubated on a rotary shaker at 30 °C for 18–24 h while E. coli was grown at 37 °C for 24 h. After incubation, the suspension was adjusted to a concentration of 6.7 × 10^5 cells/mL using a hemacytometer. The spore suspension of M. plumbeus was prepared at a concentration of 6.7 × 10^5 conidia/mL using YM medium. The determination of MIC was performed in a 96-well microtiter plate. The compounds dissolved in methanol at a concentration of 4.5 mg/mL (20 μL) were transferred to the first row of the plate. Standard antibiotics including ciprofloxacin (bacteria) and nystatin (yeast and fungus), and methanol were used as positive and negative controls, respectively. Inoculum suspension (280 μL) was added to the first row containing compounds and 150 μL were added to the rest. The solutions were then serially 2-fold diluted to 8 concentrations ranging from 2.34–300 μg/mL. Plates were incubated at 30 °C on a microplate-vibrating shaker for 24 h for bacteria and 48 h for yeast and filamentous fungus. […]
(§2) The assay was kindly conducted by Wera Collisi, Department of Microbial Drugs, Helmholtz Centre of Infection Research, Germany. The tested cell lines were cultured in EBM -2 (Lonza) sup plemented with 10% fetal bovine serum (Gibco) under 10% CO2 at 37 °C. A 60 µL of serial dilutions from an initial stock (1 mg/mL) of the test compounds in MeOH was added to 120 µL aliquots of a cell suspension (50,000 cells/mL) in 96-well microplates.
After incubation for five days, 20 µL of MTT in phosphate buffered saline (PBS) were added to give a final concentration of 0.5 mg/mL. The plates were further incubated for two hours. The precipitate

A short description of a further series: Cytotoxicity assay (MTT). The conditions noted are these: human; HeLa cell line KB3.1; MTT, five days; NA = No activity; a = Proliferation inhibition, no altered or dead cells. Format: cell-based. Here is the method:
as §1
Biological activity screening of compounds 1–6 […]
as §2, with “The isolated compounds were tested for cytotoxic activity using the MTT (3 -(4,5-dimethylthiayol -2-yl)-2,5-diphenyltetrayolium bromide) method in 96 -well microtiter plates following the procedure previously described by Chepkirui et al.7 against th e cervix carcino ma cell line KB3.1 and the established mouse fibroblast cell line L929. The assay” for “The assay”
After incubation for five days, 20 µL of MTT in phosphate buffered saline (PBS) were added to give a final concentration of 0.5 mg/mL. The plates were further incubated for two hours. The precipitate […]
of formazan crystals was centrifuged and the supernatant was then discarded. Each well was washed with 100 µL of PBS and 100 µL of isopropanol containing 0.4% hydrochloric acid were subsequently added in order to get the residual dissolved. The plates were gently shaken for 20 min before the absorbance at 590 nm was measured using an ELISA microplate reader (Victor). The concentration, at which the growth of cells was inhibited to 50% of the control (IC50), was obtained from the dose - response curves. Methanol was used as negative control while epothilone A and B wer e used as positive controls for L929 and KB3.1 cell lines, respectively. […]
After incubation at 37 °C under shaking condition, the overnight cultures were adjusted to equal the turbidity of 0.5 McFarland standard using the assay medium. The assay was carried out in 96 -well tissue cultured -treated microplates (TPP®, Germany) for S. aureus and non-treated plates (Falcon®MicroTestTM, USA) for P. aeruginosa , in which 10 μ L of each compound (0.5 mg/m L) in six replicates were mixed together with 140 μ L of bacterial suspension. Methanol and CASO medium with and without 4% glucose were used as negative controls and tetracycline (100 μg/m L) as positive control. Plates were covered with a sterile adhesive porous paper (Kisker Biotech GmbH, Steinfurt, Germany) and incubated at 37 °C for 24 h.
After incubation, ba cterial biofilms were stained with 0.1% crystal violet solution (Sigma -Aldrich) following the protocol of O’Toole .9 Then, the biofilm was subsequently quantified using a microplate reader at 550 nm. […]
aeruginosa PA14 were further evaluated for their bacteriostatic and bactericidal activit ies. The assay was performed in the Bioscreen 100 -well Honeycomb plate according to the protocol described by Yuyama et al. 13 where the MIC values were determined. […]

A further series concerns B. subtilis. The arrangement: method as in PMID 22889083. Particulars: reported by Grove and co-workers; cited from earlier work.
Where [1] appears, read: Bacillus subtilis DSM10, 24 h, range 2.34–300 μg/mL, NA = No activity.

In brackets after ≈: the same amount, converted by molar mass. Where two headings read alike, the source gives them in different places.

For `COc1cc(O)c2c(O)c3c(cc2c1-c1c(OC)cc(O)c2c(O)c4c(cc12)CC(C)OC4=O)CC(C)OC3=O` (stereo not drawn) [Pigmentosin A (1), pigmentosin A], the “Antimicrobial activity (MIC) BS” value in the series on Bacillus subtilis DSM10 (setting [1]) stood at 12.5 µg/mL. The minimum inhibitory concentration (MIC) in the series on Bacillus subtilis DSM10 (Bacillus subtilis, DSM10, 24 h) came out at 12.5 µg/mL (≈ 22.9 µM). In addition, it took 17 µg/mL (≈ 31.1 µM) to reach half-maximal inhibition in “Cytotoxicity assay (MTT)” (IC50). Further, the “MIC against B. subtilis” value with B. subtilis is 20 µg/mL (≈ 36.6 µM).
For the molecule `COc1cc(O)c2c(O)c3c(cc2c1-c1c(OC)cc(O)c2c(O)c4c(cc12)CC(CC(C)O)OC4=O)CC(C)OC3=O` (stereo not drawn) [Pigmentosin B (2), pigmentosin B], in the series on Bacillus subtilis DSM10 (setting [1]), the “Antimicrobial activity (MIC) BS” value was determined as 100 µg/mL and the MIC came out at 100 µg/mL (≈ 169 µM).

The values are drawn from article PMC6941404, “Pigmentosins from Gibellula sp. as antibiofilm agents and a new glycosylated asperfuran from Cordyceps javanica” (Beilstein Journal of Organic Chemistry, 2019).
